{
  "source": "patent US20230322735A1",
  "about": "“AZETIDINYL TRYPTAMINES AND METHODS OF TREATING PSYCHIATRIC DISORDERS” (priority 2020, published 2023)",
  "key": {"[1]": {"system": "Sprague Dawley rats", "experiment": "Forced swim test (FST) in rats", "format": "in vivo, rat", "conditions": "SC", "method": "These effects on swimming were stronger than those induced by the control antidepressant desipramine.\nAnimals. Male Sprague Dawley rats, aged 8-10 weeks, were used in the experiments. Animals were housed in groups of 2 under controlled temperature (22±3° C.) and relative humidity (30-70%) conditions, with 12-hour light/dark cycles, and with ad libitum food and water. These studies were carried out in strict accordance with the requirements of the Committee for the Purpose of Control and Supervision of Experiments on Animals (CPCSEA), India. All efforts were made to minimize suffering.\nDrugs and Drug Administration. Compound 2 was prepared as described above. All other compounds were commercially obtained. Test compounds, saline vehicle, and the positive control desipramine were administered subcutaneously (SC), with doses calculated based on the free base. […] All compounds were administered at a volume of 5 mL/kg. Test compounds and vehicle were administered 0.5 h after the start of the training swim (Swim 1) and 23.5 h before the test swim (Swim 2). Desipramine was administered 3 times, at 23.5 h, 5 h, and 1 h before the test swim (Swim 2), each time at a dose of 20 mg/kg.\nForced Swim Test (FST). […] Group size was N=10 per treatment, except for the vehicle and desipramine groups, which were N=20. Rats were handled for about 2 min daily for the 5 days prior to the beginning of the experimental procedure. On the first day of the experiment (i.e., Day 0), post randomization, training swim sessions (Swim 1) were conducted between 12:00 and 18:00 h with all animals by placing rats in individual glass cylinders (46 cm tall×20 cm in diameter) containing 23-25° C. water 30 cm deep for 15 minutes. At the conclusion of Swim 1, animals were dried with paper towels, placed in heated drying cages for 15 minutes, and then returned to their home cages. […]\nBehavioral scoring was conducted by observers who were blind to the treatment groups. Animals were continuously observed during Swim 2 and the total time spent engaging in the following behaviors was recorded: immobile, swimming, and climbing. […]"}, "[2]": {"target": "T1, 5-HT2B receptor (Homo sapiens, UniProt P41595)", "T1 construct": "host or cells: HEK293", "T1 sequence (P41595 whole entry)": "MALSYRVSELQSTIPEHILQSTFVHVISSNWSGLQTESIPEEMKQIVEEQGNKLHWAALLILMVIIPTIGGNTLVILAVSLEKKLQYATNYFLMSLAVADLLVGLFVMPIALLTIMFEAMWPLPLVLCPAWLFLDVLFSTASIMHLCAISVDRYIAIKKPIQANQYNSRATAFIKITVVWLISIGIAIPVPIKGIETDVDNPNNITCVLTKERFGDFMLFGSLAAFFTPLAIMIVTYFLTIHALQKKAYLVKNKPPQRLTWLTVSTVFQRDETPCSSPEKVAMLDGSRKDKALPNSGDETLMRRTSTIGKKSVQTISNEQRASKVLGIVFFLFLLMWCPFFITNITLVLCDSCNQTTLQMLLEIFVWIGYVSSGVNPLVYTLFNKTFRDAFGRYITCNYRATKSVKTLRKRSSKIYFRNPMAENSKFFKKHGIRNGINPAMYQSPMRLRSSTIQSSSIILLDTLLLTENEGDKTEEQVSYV", "experiment": "FLIPR Ca2+ flux agonist assay at 5-HT2B (HEK293)", "format": "cell-based", "method": "A solution of 250 mM probenecid in 1 mL FLIPR assay buffer was prepared fresh. This was combined with a fluorescent dye (Fluo-4 Direct™) to make a final assay concentration of 2.5 mM. […] The fluorescent dye was then added to the assay plate along with assay buffer to a final volume of 40 μL. The cell plate was incubated for 50 min at 37° C. and 5% CO2 and placed into the FLIPR Tetra along with the compound plate. 10 μL of references and compounds were then transferred from the compound plate into the cell plate and the fluorescent signal was read."}, "[3]": {"system": "C57BL/6 mice", "experiment": "Head twitch response (HTR) in mice", "format": "in vivo, mouse", "conditions": "SC"}, "[4]": {"conditions": "single dose 23.5 h before test swim, vs vehicle"}},
  "data": [
    {"smiles": "Oc1cccc2[nH]cc(CCN3CCC3)c12", "note": "[Compound 2, 3-(2-(azetidin-1-yl)ethyl)-1H-indol-4-ol]", "values": [
      {"measurement": "dose with significant effect on immobility in the FST", "setting": "[1]; 23.5 h pre-treatment, lowest dose tested", "value": "≤ 0.1", "unit": "mg/kg"},
      {"measurement": "immobility time in the FST", "setting": "[1]; [4]", "value": "reduced immobility time"},
      {"measurement": "swimming time in the FST", "setting": "[1]; [4]", "value": "significant increases in swimming"},
      {"measurement": "EC50", "setting": "[2]", "value": "> 10", "unit": "µM"},
      {"measurement": "5-HT2B % Act @ Max Dose", "setting": "[2]; Ca2+ flux, agonist mode, HEK293", "value": 3.83, "unit": "%"},
      {"measurement": "Average HTR Over 20-min Test", "setting": "[3]; dose 0.1 mg/kg", "value": 4.667},
      {"measurement": "Average HTR Over 20-min Test", "setting": "[3]; dose 1 mg/kg", "value": 8.667},
      {"measurement": "Average HTR Over 20-min Test", "setting": "[3]; dose 10 mg/kg", "value": 9.000}
    ]}
  ]
}
